Data from ChEMBL document CHEMBL1136451, “Semi-synthetic glycopeptide antibacterials” (Bioorg Med Chem Lett, 2003).
Converted amounts (≈) assume the structure as drawn.

What was measured:
Staphylococcus aureus [1] = assay: Antibacterial activity against Vancomycin resistant staphylococcus aureus (VRSA); format: functional
[2] = Half life of compound was determined in man with once daily dosing; format: ADME; conditions: human
[3] = Cmax (Tissue distribution) of compound was determined at a dose of 5 mg/kg in human; format: ADME, organism-based; set-up: dose 5 mg/kg; conditions: in vivo
Staphylococcus aureus [4] = assay: Inhibitory activity of compound against Staphylococcus aureus ATCC 33591; format: functional, organism-based
Streptococcus agalactiae = assay: Inhibitory activity of compound against Streptococcus agalactiae KPB-01; format: functional, organism-based
Enterococcus faecalis = assay: Inhibitory activity of compound against VanA Enterococcus faecalis MGH-01; format: functional, organism-based
Enterococcus sp. = assay: Antibacterial activity against Enterococcus species., VanA; format: functional
Staphylococcus aureus [5] = assay: Antibacterial activity against Methicillin resistant staphylococcus aureus (MRSA); format: functional
Streptococcus pneumoniae = assay: Antibacterial activity against Streptococcus pneumoniae; format: functional

Row | SMILES | MIC (Staphylococcus aureus [1]) [mg/L] | MIC90 (Enterococcus sp.) [mg/L] | MIC90 (Staphylococcus aureus [5]) [mg/L] | MIC90 (Streptococcus pneumoniae) [mg/L] | also measured
1 | CCCCCCCCCCNCCN[C@@]1(C)C[C@H](O[C@H]2[C@H](Oc3c4cc5cc3Oc3ccc(cc3Cl)[C@@H](O)[C@]3(C)NC(=O)[C@H](NC(=O)[C@@H]5NC(=O)[C@H](CC(N)=O)NC(=O)[C@](C)(NC(=O)[C@@H](CC(C)C)NC)[C@H](O)c5ccc(c(Cl)c5)O4)c4ccc(O)c(c4)-c4c(O)cc(O)cc4[C@@H](C(=O)O)NC3=O)O[C@H](CO)[C@@H](O)[C@@H]2O)O[C@@H](C)C1O (stereo not given in full) | 0.4 (≈ 0.241 µM) | – | – | – | –
2 | CCCCCCCCCCNCCN[C@@]1(C)C[C@H](O[C@H]2[C@H](Oc3c4cc5cc3Oc3ccc(cc3Cl)[C@@H](O)[C@@H](NC(=O)[C@@H](CC(C)C)NC)C(=O)N[C@@H](CC(N)=O)C(=O)N[C@H]5C(=O)N[C@H]3C(=O)N[C@H](C(=O)N[C@H](C(=O)O)c5cc(O)c(CNCP(=O)(O)O)c(O)c5-c5cc3ccc5O)[C@H](O)c3ccc(c(Cl)c3)O4)O[C@H](CO)[C@@H](O)[C@@H]2O)O[C@@H](C)[C@H]1O | – | – | – | – | half-life [2]: 7 h; Cmax [3]: 45 µg/mL
3 | CCCCCCCCCCNCCN[C@@]1(C)C[C@H](O[C@H]2[C@H](Oc3c4cc5cc3Oc3ccc(cc3Cl)[C@@H](O)[C@@](C)(NC(=O)[C@@H](CC(C)C)NC)C(=O)N[C@@H](CC(N)=O)C(=O)N[C@H]5C(=O)N[C@H]3C(=O)N[C@H](C(=O)N[C@H](C(=O)O)c5cc(O)c(CNCP(=O)(O)O)c(O)c5-c5cc3ccc5O)[C@H](O)c3ccc(c(Cl)c3)O4)O[C@H](CO)[C@@H](O)[C@@H]2O)O[C@@H](C)C1O (stereo not given in full) [listing 1 of 2 here] | – | – | – | – | IC50 (Staphylococcus aureus [4]): 23 mg/L (≈ 13 µM); IC50 (Streptococcus agalactiae): 15 mg/L (≈ 8.48 µM); IC50 (Enterococcus faecalis): 10 mg/L (≈ 5.65 µM)
4 | CCCCCCCCCCNCCN[C@@]1(C)C[C@H](O[C@H]2[C@H](Oc3c4cc5cc3Oc3ccc(cc3Cl)[C@@H](O)[C@@](C)(NC(=O)[C@@H](CC(C)C)NC)C(=O)N[C@@H](CC(N)=O)C(=O)N[C@H]5C(=O)N[C@H]3C(=O)N[C@H](C(=O)N[C@H](C(=O)O)c5cc(O)c(CNCP(=O)(O)O)c(O)c5-c5cc3ccc5O)[C@H](O)c3ccc(c(Cl)c3)O4)O[C@H](CO)[C@@H](O)[C@@H]2O)O[C@@H](C)C1O (stereo not given in full) [listing 2 of 2 here] | 2 (≈ 1.13 µM) | 8 (≈ 4.52 µM) | 1 (≈ 0.565 µM) | 0.008 (≈ 0.00452 µM) | –
5 | CN[C@H]1C(=O)N[C@@H]2Cc3ccc(cc3)Oc3cc4cc(c3O[C@@H]3O[C@H](C(=O)O)[C@@H](O)[C@H](O)[C@H]3NC(=O)CCCCCCCCC(C)C)Oc3ccc(cc3Cl)[C@@H](O)[C@@H]3NC(=O)[C@H](NC(=O)[C@@H]4NC(=O)[C@@H](NC2=O)c2cc(cc(O)c2Cl)Oc2cc1ccc2O)c1ccc(O)c(c1)-c1c(O[C@H]2O[C@H](CO)[C@@H](O)[C@H](O)[C@@H]2O)cc(O)cc1[C@@H](C(=O)NCCCN(C)C)NC3=O [DALBAVANCIN] | – | 128 (≈ 70.5 µM) | 0.25 (≈ 0.138 µM) | 0.06 (≈ 0.033 µM) | –
6 | CN[C@H](CC(C)C)C(=O)N[C@H]1C(=O)N[C@@H](CC(N)=O)C(=O)N[C@H]2C(=O)N[C@H]3C(=O)N[C@H](C(=O)N[C@H](C(=O)O)c4cc(O)cc(O)c4-c4cc3ccc4O)[C@H](O[C@H]3C[C@](C)(N)[C@@H](O)[C@H](C)O3)c3ccc(c(Cl)c3)Oc3cc2cc(c3O[C@@H]2O[C@H](CO)[C@@H](O)[C@H](O)[C@H]2O[C@H]2C[C@](C)(NCc3ccc(-c4ccc(Cl)cc4)cc3)[C@@H](O)[C@H](C)O2)Oc2ccc(cc2Cl)[C@H]1O [ORITAVANCIN] | 0.5 (≈ 0.279 µM) | 4 (≈ 2.23 µM) | 1 (≈ 0.558 µM) | 0.008 (≈ 0.00446 µM) | –
7 | CN[C@H](CC(C)C)C(=O)N[C@H]1C(=O)N[C@@H](CC(N)=O)C(=O)N[C@H]2C(=O)N[C@H]3C(=O)N[C@H](C(=O)N[C@H](C(=O)O)c4cc(O)cc(O)c4-c4cc3ccc4O)[C@H](O)c3ccc(c(Cl)c3)Oc3cc2cc(c3O[C@@H]2O[C@H](CO)[C@@H](O)[C@H](O)[C@H]2O[C@H]2C[C@](C)(N)[C@H](O)[C@H](C)O2)Oc2ccc(cc2Cl)[C@H]1O [VANCOMYCIN] | – | 4 (≈ 2.76 µM) | 1 (≈ 0.69 µM) | 0.008 (≈ 0.00552 µM) | –
